The nature of data set [1]: physchem. The conditions noted are these: octanol/water, pH 7.4.
For data set [2] the following is noted: hexadecane/water, pH 7.4.
The nature of data set [3]: physchem. The conditions noted are these: octanol/water.
The conditions of data set [4]: hexadecane/water.
Description: Hexadecane-water partition coefficient, log P of the compound
Data set [5] can be described thus: in vivo. The conditions noted are these: Wistar, rat.
For data set [6] the following is noted: octanol/water.

Each structure is given as a SMILES string.

Consider 58 compounds from ChEMBL document CHEMBL1155018, “Toward prediction of alkane/water partition coefficients” (J Med Chem, 2008).
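For Kp in this document: drug concentration in brain divided by that in blood, measured in Wistar rats.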

What is called logD is the decadic logarithm of the distribution of all forms, ionised or not, between an organic phase and buffer at a given pH. Low readings indicate a more hydrophilic compound, high ones a more lipophilic compound. For `O=c1ccn(Cc2ccc(-c3ccccc3)cc2)cc1`, the values for the logD in data set [1] and in data set [2] were 2.47 and -1.76, respectively.
On the same counts, the results for `CC(=O)N(C)c1ccccc1` are 1 and -0.54.
One may read the logP as the decadic logarithm of the partition coefficient of the neutral form, usually between octanol and water. A higher logP goes with higher lipophilicity. Consider `Clc1ccc2ncncc2c1`, for which, in data set [3], the logP is 1.78.
As for `CN(C)C(=O)N(C)c1ccccc1`, the logD in data set [1] is 1.6; in data set [2], 0.16.
On to `CC(=O)c1ccccc1` [ACETOPHENONE], for which the logD in data set [1] was 1.61; in data set [2], 0.96. Further, in data set [4], the logP worked out at 1.12.
As to `CN(C)C(=O)c1ccccc1`, the logD was 0.71 in data set [1] and -0.98 in data set [2].
`O=[N+]([O-])c1ccccc1` [NITROBENZENE]: the logD in data set [1] was 1.83.
The compound `COc1ccc(CN(CCN(C)C)c2ccccn2)cc1` [PYRILAMINE] gave a Kp in data set [5] (brain) of 3.09.
As for `Clc1ccc(Cn2ccnn2)cc1`, the logP in data set [3] was determined as 1.78.
Regarding `CN1Cc2ccccc2C1=O`, the logD in data set [1] is 0.87; in data set [2], -1.07.
In data set [5] (brain / blood), `Cc1nc2n(c(=O)c1CCN1CCC(c3noc4cc(F)ccc34)CC1)CCCC2O` (configuration not stated) [PALIPERIDONE] gave a Kp of 0.214.
In data set [5] (brain / blood), `Clc1ccc2c(c1)[C@H]1CNC[C@@H]1c1ccccc1O2` showed a Kp of 2.45.
As for `O=C1CCCN1Cc1ccccc1`, the logD is 1.32 in data set [1] and -0.6 in data set [2].
Regarding `COc1ccc(C#N)cc1`, the logD is 1.75 in data set [1] and 0.92 in data set [2].
On the same counts, the results for `Cn1cnc2ccccc21` are 1.34 and -0.89.
In data set [5] (brain), `CN1CCN2c3ncccc3Cc3ccccc3C2C1` (configuration not stated) [MIRTAZAPINE] had a Kp of 3.39.
On the same count and under the same terms, the result for `Cc1cccc2c1Oc1ccccc1[C@@]1(O)CCNC[C@@H]21` reads 3.31.
Same read-out and setting: the figure for `O=C1CCCN1CCCCN1CCN(c2cc(C(F)(F)F)ccn2)CC1` is 1.45.
With `c1ccc2[nH]ccc2c1` [INDOLE], the logD in data set [1] came to 2.24; in data set [2] it was 0.66.
Taken in the same sequence, the figures for `Cc1ccc2occc(=O)c2c1` were 1.9 and 0.56.
As to `Cc1nc2n(c(=O)c1CCN1CCC(c3noc4cc(F)ccc34)CC1)CCCC2` [RISPERIDONE], the Kp in data set [5] (brain) is 0.955.
As to `Clc1ccccn1` [2-CHLOROPYRIDINE], the logD in data set [1] was 1.23; in data set [2], 0.52.
On the same counts, the results for `CN1C(=O)c2ccccc2C1=O` are 1.32 and -0.15.
Turning to `c1ccc2nnccc2c1` [CINNOLINE], the logP in data set [3] was determined as 1.01.
Regarding `COc1ccccc1` [ANISOLE], the logD in data set [1] was 2.15; in data set [2], 1.9. The same compound gave a logP in data set [4] of 2.13.
As for `Cn1c(=O)n(C)c2ccccc21`, the logD in data set [1] stood at 1.33; in data set [2], 0.53.
On to `N#Cc1ccccc1` [BENZONITRILE], for which the results for the logD in data set [1] and in data set [2] were 1.56 and 0.91, respectively. In data set [4], the logP was found to be 0.99.
The compound `N#Cc1ccncc1` [ISONICOTINONITRILE] gave a logP in data set [6] of 0.46.
Take `O=S(=O)(c1ccccc1)c1ccccc1` [(PHENYLSULFONYL)BENZENE]: the logD in data set [1] came to 2.41; in data set [2], 0.75.
Consider `Cc1cccc2c1Oc1ccccc1[C@@]1(O)CCN(C)C[C@@H]21`, for which, in data set [5] (brain), the Kp is 6.61.
Take `Cc1cnccn1`: in data set [3], the logP was 0.23.
Take `Clc1ccc2cc[nH]c2c1`: the logD in data set [1] stood at 3.22; in data set [2], 1.36.
On to `c1ccc2nccnc2c1` [QUINOXALINE], for which the logD in data set [1] was determined as 1.31; in data set [2] it was 0.47.
`c1ccc2ncccc2c1` [QUINOLINE] registered a logD in data set [1] of 1.99.
As to `CC(C)c1nc(-c2ncn3c2CN(C)C(=O)c2c(Cl)cccc2-3)no1`, the Kp in data set [5] (brain / blood) is 0.501.
In the case of `c1ccc2cnccc2c1` [ISOQUINOLINE], the log distribution coefficient (logD) in data set [1] was found to be 2.09; in data set [2], 0.98.
Take `CN1C[C@@H]2c3ccccc3Oc3ccc(Cl)cc3[C@H]2C1` [ASENAPINE]: the Kp in data set [5] (brain) is 10.7.
In data set [5] (brain / blood), `CN1Cc2c(-c3noc(C(C)(C)O)n3)ncn2-c2cccc(Cl)c2C1=O` showed a Kp of 0.0457.
As to `c1ccc2c(c1)COC2`, the logD came out at 1.74 in data set [1] and 1.36 in data set [2].
As for `CCN1C(=O)Cc2ccccc21`, the logD is 1.69 in data set [1] and 0.49 in data set [2].
For `Cc1ccc2c(c1)c(C)cc(C)[n+]2[O-]`, the logD was 1.71 in data set [1] and -0.57 in data set [2].
`CN(C)CCC=C1c2ccccc2CCc2ccccc21` [AMITRIPTYLINE] showed a Kp in data set [5] (brain / blood) of 9.55.
For `O=c1ccccn1Cc1ccccc1`, the values for the logD in data set [1] and in data set [2] were 1.37 and -0.72, respectively.
Taken in the same sequence, the figures for `CCn1c(C)cc(=O)c2ccc(Cl)cc21` were 1.8 and -1.4.
On the same counts, the results for `O=c1ccccn1Cc1cccc(Cl)c1` are 2.09 and -0.03.
As to `c1ccc2nocc2c1` [BENZO[C]ISOXAZOLE], the logD in data set [1] is 1.49; in data set [2] it was 0.75.
Taken in the same sequence, the figures for `CN(C)C(=O)Cc1ccc(Br)cc1` were 1.83 and 0.07.
On to `[O-][S+](CC1CCCCC1)c1ccccc1` (configuration not stated), for which the logD in data set [1] was 2.81; in data set [2], 1.23.
With `CN1Cc2c(-c3noc(C(C)(O)CO)n3)ncn2-c2cccc(Cl)c2C1=O` (configuration not stated), in data set [5] (brain), the Kp is 0.0151.
In data set [5] (brain / blood), `CN(C)CCCN1c2ccccc2CCc2ccccc21` [IMIPRAMINE] gave a Kp of 11.2.
For `O=c1ccccn1Cc1ccc(C(F)(F)F)cc1`, the logD in data set [1] was found to be 2.47; in data set [2], 0.18.
Taken in the same sequence, the figures for `CN1C(=O)Cc2ccccc21` were 1.25 and 0.
As for `c1ccc(Cn2ccnc2)cc1` [BENZYLIMIDAZOLE], the values for the logD in data set [1] and in data set [2] were 1.55 and -0.83, respectively.
Taken in the same sequence, the figures for `[O-][S+](c1ccccc1)c1ccccc1` were 2.1 and 0.66.
Taken in the same sequence, the figures for `c1cnc2cccnc2c1` were 0.79 and -0.49.
In the case of `Cn1c(=O)ccc2ccccc21`, the logD in data set [1] was 1.52; in data set [2] it was -0.15.
`CNCCCN1c2ccccc2CCc2ccccc21` [DESIPRAMINE] had a Kp in data set [5] (brain) of 10.
Regarding `O=C1Cc2ccccc2CO1`, the figures for the logD in data set [1] and in data set [2] were 1.02 and -0.29, respectively.
